{
  "source": "patent US6951729B1",
  "about": "“High throughput screening method for biological agents affecting fatty acid biosynthesis” (Affinium Pharmaceuticals, Inc., priority 1999, dated 2005)",
  "key": {"FabH [1]": {"target": "FabH (Escherichia coli, UniProt P0A6R0)", "sequence (P0A6R0 whole entry)": "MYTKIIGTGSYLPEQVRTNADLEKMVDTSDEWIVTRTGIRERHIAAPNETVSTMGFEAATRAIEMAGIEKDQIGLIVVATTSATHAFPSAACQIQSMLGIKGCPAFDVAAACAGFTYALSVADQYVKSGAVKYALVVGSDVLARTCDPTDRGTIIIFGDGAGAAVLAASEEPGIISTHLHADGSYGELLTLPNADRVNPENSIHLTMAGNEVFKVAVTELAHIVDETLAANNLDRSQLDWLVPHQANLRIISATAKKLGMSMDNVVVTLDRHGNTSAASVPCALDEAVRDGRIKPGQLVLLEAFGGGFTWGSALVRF", "settings": "Heath et al. 1996; cited from earlier work"}, "FabI": {"target": "FabI (Escherichia coli, UniProt P0AEK4)", "sequence (P0AEK4 whole entry)": "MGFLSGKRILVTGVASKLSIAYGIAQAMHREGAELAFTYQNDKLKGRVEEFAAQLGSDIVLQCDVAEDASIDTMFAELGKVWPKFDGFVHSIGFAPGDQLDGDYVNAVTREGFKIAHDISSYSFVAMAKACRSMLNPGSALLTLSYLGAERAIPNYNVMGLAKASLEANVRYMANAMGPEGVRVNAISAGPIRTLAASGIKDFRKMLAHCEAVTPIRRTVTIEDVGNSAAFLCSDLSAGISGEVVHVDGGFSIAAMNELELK", "settings": "Heath et al. 1996; cited from earlier work"}, "FabH [2]": {"system": "FabH", "settings": "through formation of dead end inhibition complexes with enzyme"}, "FabK": {"system": "FabK", "assay": "FabK activity assay, activation by monovalent cations", "format": "biochemical, Streptococcus pneumoniae", "settings": "NH4+ at 100 mM", "description": "FabK catalyses the reduction of enoyl-ACPs with the concommitant oxidation of NADH. Crotonoyl-ACP can be prepared as described below. The reduction of crotonoyl-ACP to butyryl-ACP can be monitored by following the change in absorbance at 340 nm as NADH is oxidised.\nAssays were carried out in Costar 3696 half-area plates in a fmal assay volume of 150 μl on a Spectramax platereader. Substrates, NADH and crotonoyl ACP, were incubated with FabK enzyme in […] N-[2-acetamido]-2 iminodiacetic acid (ADA), pH 6.5, 100 mM NH4Cl, 4% glycerol at 30° C. and the reaction monitored at 340 nm. This assaying can also be performed using crotonyl CoA, NADPH or an NADH analogue as a substrate."}, "[3]": {"system": "bacterial fatty acid biosynthesis", "settings": "cited from earlier work"}},
  "data": [
    {"compound": "palmitoyl-ACP", "values": [
      {"measurement": "feedback inhibition of FabH", "setting": "FabH [1]", "result": "feedback inhibition"},
      {"measurement": "feedback inhibition of FabI", "setting": "FabI", "result": "feedback inhibition"}
    ]},
    {"compound": "Acetyl-ACP", "values": [
      {"measurement": "inhibition of FabH", "setting": "FabH [2]", "result": "inhibitor of FabH"}
    ]},
    {"compound": "N", "note": "[NH4^+]", "values": [
      {"measurement": "activation of the FabK reaction over the reaction with no monovalent cations", "setting": "FabK", "result": "about 300 fold"}
    ]},
    {"compound": "C/C=C/C/C=C/CCC(=O)[C@H]1O[C@H]1C(N)=O", "note": "[Cerulenin]", "values": [
      {"measurement": "inhibition of bacterial fatty acid biosynthesis", "setting": "[3]", "result": "potent inhibitors"}
    ]},
    {"compound": "C=C/C(C)=C/[C@@]1(C)SC(=O)C(C)=C1O", "note": "[thiolactomycin]", "values": [
      {"measurement": "inhibition of bacterial fatty acid biosynthesis", "setting": "[3]", "result": "potent inhibitors"}
    ]}
  ]
}
